From patent US6562756B1, “Herbicidal compositions” (Nissan Chemical Industries, Ltd., priority 1999, dated 2003)

Legend:
Type in all cases: in vivo
[1] = test system: common ragweed (Ambrosia artemisiaefolia); assay: Test on herbicidal effects by soil treatment: common ragweed; details: four weeks after application
Method: (§1) Plastic cases having a size of 30 cm (length), 30 cm (width) and 10 cm (depth) were charged with sterilized upland soil. In each plastic case, seeds of velvetleaf (Abutilon theophrasti), common lambsquarters (Chenopodium album), redroot pigweed (Amaranthus viridis) and common ragweed (Ambrosia artemisiaefolia) were seeded, and covered with soil of 0.5 cm thickness. On the day of seeding, wettable powder appropriately formulated according to the above Formulation Examples was diluted with water and then applied with a small type sprayer at a spray volume of 10 liter/are. Four weeks after the application, the fresh weight of aerial parts of each weed was determined and then compared with those of untreated weed.

[2] = test system: common lambsquarters (Chenopodium album); assay: Test on herbicidal effects by soil treatment: common lambsquarters; details: four weeks after application
Method: as §1

maize = assay: Test on phytotoxicity to maize sown at a shallow sowing depth (soil treatment, pot test); details: for Fresh weight ratio with respect to untreated plants: maize sown at 1 cm depth, 17 days after application; for phytotoxicities to maize sown at a shallow sowing depth caused by Compound (A1), (A2), (A3) or (A4): effect of the safener: summary in words of Table 1
Method: Cylindrical pots having an inner diameter of about 11 cm and a depth of 10 cm were charged with sterilized upland soil. In each pot, three seeds of maize were separately seeded at a sowing depth of 1 cm. On the day of seeding, wettable powder appropriately formulated according to the above Formulation Examples was diluted with water and then applied with a small type sprayer at a spray volume of 10 liter/are. Seventeen days after the application, the fresh weight of aerial parts of each plant was determined and then compared with those of untreated plants.

[3] = test system: redroot pigweed (Amaranthus viridis); assay: Test on herbicidal effects by soil treatment: redroot pigweed; details: four weeks after application
Method: as §1

[4] = test system: velvetleaf (Abutilon theophrasti); assay: Test on herbicidal effects by soil treatment: velvetleaf; details: four weeks after application
Method: as §1

weeds = assay: Test on herbicidal effects by soil treatment: summary over the weeds; details: summary in words of Table 2
Method: as §1

Row | Compound | Fresh weight ratio with respect to untreated weeds, A.ar ([1]; 5 g/ha) [%] | Fresh weight ratio with respect to untreated weeds, A.ar ([1]; 10 g/ha) [%] | Fresh weight ratio with respect to untreated weeds, C.al ([2]; 5 g/ha) [%] | Fresh weight ratio with respect to untreated weeds, C.al ([2]; 10 g/ha) [%] | Fresh weight ratio with respect to untreated plants (maize; 40 g/ha) [%] | Fresh weight ratio with respect to untreated plants (maize; 80 g/ha) [%] | phytotoxicities to maize sown at a shallow sowing depth caused by Compound (A1), (A2), (A3) or (A4): effect of the safener (maize) | Fresh weight ratio with respect to untreated weeds, A.vi ([3]; 5 g/ha) [%] | Fresh weight ratio with respect to untreated weeds, A.vi ([3]; 10 g/ha) [%] | Fresh weight ratio with respect to untreated weeds, A.th ([4]; 5 g/ha) [%] | Fresh weight ratio with respect to untreated weeds, A.th ([4]; 10 g/ha) [%] | herbicidal activities in the presence of Compound (B), (C), (D) or (E) (weeds)
1 | CC1COc2ccccc2N1C(=O)C(Cl)Cl (stereo not shown) [Compound (E)] | 100 | 100 | 100 | 100 | 100 | 100 | remarkably reduced | 100 | 100 | 100 | 100 | –
2 | Cn1c(C(F)(F)F)cc(=O)n(-c2cc(NS(C)(=O)=O)c(C#N)cc2F)c1=O [Compound (A2)] | 40 | 10 | 18 | 0 | 90 | 76 | – | 9 | 0 | 32 | 4 | not decreased
3 | O=C(C(Cl)Cl)N1CCOC12CCCCC2 [Compound (D)] | 100 | 100 | 100 | 100 | 100 | 100 | remarkably reduced | 100 | 100 | 100 | 100 | –
4 | CCS(=O)(=O)Nc1cc(-n2c(=O)cc(C(F)(F)F)n(C)c2=O)c(F)cc1Cl [Compound (A1)] | 31 | 7 | 13 | 0 | 70 | 55 | – | 5 | 0 | 26 | 2 | not decreased
5 | CCS(=O)(=O)N(C(=O)c1ccc(OC)cc1)c1cc(-n2c(=O)cc(C(F)(F)F)n(C)c2=O)c(F)cc1Cl [Compound (A4)] | 40 | 14 | 17 | 0 | 73 | 57 | – | 9 | 0 | 27 | 5 | not decreased
6 | CCS(=O)(=O)N(C(=O)C(C)(C)C)c1cc(-n2c(=O)cc(C(F)(F)F)n(C)c2=O)c(F)cc1C#N [Compound (A3)] | 37 | 11 | 15 | 0 | 84 | 60 | – | 6 | 0 | 24 | 1 | not decreased
7 | CC1(C)OC(c2ccco2)CN1C(=O)C(Cl)Cl (stereo not shown) [Compound (B)] | 100 | 100 | 100 | 100 | 100 | 100 | remarkably reduced | 100 | 100 | 100 | 100 | –
8 | CC1(C)CN2C(=O)CCC2(C)N(C(=O)C(Cl)Cl)C1 (stereo not shown) [Compound (C)] | 100 | 100 | 100 | 100 | 100 | 100 | remarkably reduced | 100 | 100 | 100 | 100 | –
